# Source: patent publication US20170056367A1, “PHARMACEUTICAL COMPOSITIONS FOR INHIBITING THE OSTEOCLAST DIFFERENTIATION COMPRISING EUPATILIN” (OsteoNeuroGen CO., LTD, priority 2015, published 2017)
# What was measured:
# [1] = system: mouse bone marrow cells (MBMC); assay: Cytotoxicity of eupatilin (FIG. 1D); format: cell-based; settings: at the concentration (50 μM)
# GSK3b = assay: Osteoclast formation upon overexpression of GSK3b; format: cell-based; settings: FIGS. 4A and 4B
# [2] = system: TRAP, OSCAR, Integrin av, DC-STAMP, integrin b3, and OC-STAMP; assay: Osteoclast differentiation marker gene levels by real-time PCR; format: cell-based, mouse; settings: 50 μM eupatilin, MBMC differentiation, FIG. 2
# Protocol: During the differentiation of MBMC into osteoclasts in the presence of 50 μM eupatilin, the levels of osteoclast differentiation marker genes were measured by real-time PCR.
# [3] = system: LPS-induced osteoporosis mouse models; assay: LPS-induced osteoporosis model; format: in vivo
# osteoclasts = assay: RANKL-mediated bone resorption measured using dentin; format: cell-based
# Protocol: Effects of eupatilin on RANKL-mediated bone-resorption were measured using dentin.
# [4] = system: Osteoblasts differentiated from mesenchymal stem cells; assay: ALP activity of osteoblasts differentiated from mesenchymal stem cells; format: cell-based, mouse; settings: FIG. 9
# Protocol: Osteoblasts differentiated from mesenchymal stem cells were measured for ALP activity in the presence of eupatilin.
# IkB, Akt, and GSK3b = assay: Phosphorylation of IkB, Akt and GSK3b during differentiation of MBMC into osteoclasts (gel electrophoresis); format: cell-based, mouse; settings: compared to control groups, FIG. 3A
# [5] = system: Ovariectomized mice (OVX); assay: Ovariectomized mice (OVX) model of menopausal osteoporosis; format: in vivo, mouse; settings: 50 μM eupatilin, FIG. 8
# [6] = system: human peripheral blood mononucleated cells (PBMC); assay: Differentiation of human PBMC into osteoclasts; format: cell-based; settings: 50 μM, FIG. 5
# Excerpt: Effects of eupatilin on the differentiation of human PBMC into osteoclasts were observed.
# [7] = system: RANK-mediated NF-kB activation; assay: NF-kB-luciferase assay; format: cell-based; settings: FIG. 3D
# Protocol: Retroviral overexpression of catalytically active IKKb or Akt induced partial formation of TRP^+ osteoclasts (FIGS. 3B and 3C). An NF-kB-luciferase assay was conducted to examine whether the RANK-mediated NF-kB activation was modulated by eupatilin.
# [8] = system: mouse bone marrow cells (MBMC); assay: Differentiation of mouse bone marrow cells (MBMC) into osteoclasts with M-CSF and RANKL; format: cell-based
# Protocol: Incubation with M-CSF (macrophage-colony stimulating factor) and RANK (receptor activator of NFκB) ligand (RANKL) induced mouse bone marrow cells (MBMC) to differentiate into osteoclasts during which eupatilin was used at various concentrations under monitoring.
smiles,measurement,setting,value
"COc1ccc(-c2cc(=O)c3c(O)c(OC)c(O)cc3o2)cc1OC [eupatilin, 5,7-dihydroxy-3,4,6-trimethoxyflavone]",cytotoxicity,[1],no cytotoxicity
same,MNCs in the presence of eupatilin upon overexpression of GSK3b,GSK3b,a significant quantity of MNCs was observed
same,"levels of the markers TRAP, OSCAR, Integrin av, DC-STAMP, integrin b3, and OC-STAMP",[2],significantly reduced
same,LPS-induced osteoporosis (bone density by CT),"[3]; 50 μM eupatilin, LPS intraperitoneally, FIG. 7A",significantly reduced
same,H&E and TRAP staining,"[3]; LPS model, bottom panel of FIG. 7",promote osteanagenesis and inhibit osteoclast differentiation
same,bone density,"[3]; LPS or LPS+ eupatilin, FIGS. 7B to 7E",improve bone density
same,expression of Pit,"osteoclasts; dentin, FIG. 6B",reduced
same,expression of F-actin for the formation of osteoclast actin rings,"osteoclasts; osteoclasts differentiated by RANK signaling, FIG. 6A",remarkably suppressed
same,expression of Cathepsin K,"osteoclasts; time-dependent manner, FIG. 6",significantly decreasing
same,reduction of the activity of osteoblasts (ALP activity),[4]; 50 μM,50%
same,activity of osteoblasts (ALP activity),[4]; up to 25 μM,did not influence
same,"phosphorylation levels of IkB, Akt, and GSK3b","IkB, Akt, and GSK3b",significantly reduced
same,bone density loss (CT),[5],significantly reduced
same,"expression of c-Fos, NFATc1, p-Akt, p-GSK3b, and p-IkB",[6],significantly reduce
same,formation of TRP^+ osteoclasts,[6],significantly reduce
same,RANK-mediated NF-kB activation,[7],inhibit
same,osteoclast differentiation,"[8]; 50 μM eupatilin, M-CSF and RANKL, FIG. 1A",completely suppressed
same,F-actin formation in MNCs (immunofluorescence),[8]; FIG. 1C,significantly reduced
same,formation of TRP^+ multinucleated osteoclasts (MNCs),"[8]; various concentrations, FIG. 1B",suppressed the formation of TRP^+ multinucleated osteoclasts (MNCs) in a dose-dependent manner
